Experiments:
[1] = The drug is tested on Bacteroides uniformis strain: ATCC8492 for biotransformation. The drug concentrations were measured before and after a 12-h incubation by liquid-chromatography-coupled mass spectrometry (LC–MS); conditions: 2 µM
[2] = The drug is tested on Parabacteroides merdae strain: ATCC43184 for biotransformation. The drug concentrations were measured before and after a 12-h incubation by liquid-chromatography-coupled mass spectrometry (LC–MS); conditions: 2 µM
[3] = bacteroides fragilis, 12 h, 2 µM
Description: The drug is tested on Bacteroides fragilis strain: DS-208 for biotransformation. The drug concentrations were measured before and after a 12-h incubation by liquid-chromatography-coupled mass spectrometry (LC–MS)

[4] = The drug is tested on Bacteroides fragilis strain: HMW615 for biotransformation. The drug concentrations were measured before and after a 12-h incubation by liquid-chromatography-coupled mass spectrometry (LC–MS); conditions: 2 µM
[5] = The drug is tested on Edwardsiella tarda strain: ATCC23685 for biotransformation. The drug concentrations were measured before and after a 12-h incubation by liquid-chromatography-coupled mass spectrometry (LC–MS); conditions: 2 µM
[6] = bacteroides eggerthii, 12 h, 2 µM
Description: The drug is tested on Bacteroides eggerthii strain: DSM20697 for biotransformation. The drug concentrations were measured before and after a 12-h incubation by liquid-chromatography-coupled mass spectrometry (LC–MS)

[7] = The drug is tested on Eubacterium rectale strain: ATCC33656 for biotransformation. The drug concentrations were measured before and after a 12-h incubation by liquid-chromatography-coupled mass spectrometry (LC–MS); conditions: agathobacter rectalis, 2 µM
[8] = anaerostipes sp., 12 h, 2 µM
Description: The drug is tested on Anaerostipes sp. strain: fecal isolate for biotransformation. The drug concentrations were measured before and after a 12-h incubation by liquid-chromatography-coupled mass spectrometry (LC–MS)

[9] = The drug is tested on Bacteroides xylanisolvens strain: DSM18836 for biotransformation. The drug concentrations were measured before and after a 12-h incubation by liquid-chromatography-coupled mass spectrometry (LC–MS); conditions: 2 µM
[10] = The drug is tested on Bacteroides ovatus strain: ATCC8483 for biotransformation. The drug concentrations were measured before and after a 12-h incubation by liquid-chromatography-coupled mass spectrometry (LC–MS); conditions: 2 µM
[11] = The drug is tested on Eggerthella lenta strain: ATCC25559 for biotransformation. The drug concentrations were measured before and after a 12-h incubation by liquid-chromatography-coupled mass spectrometry (LC–MS); conditions: 2 µM
[12] = The drug is tested on Clostridium sp. strain: fecal isolate for biotransformation. The drug concentrations were measured before and after a 12-h incubation by liquid-chromatography-coupled mass spectrometry (LC–MS); conditions: 2 µM
[13] = The drug is tested on Odoribacter splanchnicus strain: fecal isolate for biotransformation. The drug concentrations were measured before and after a 12-h incubation by liquid-chromatography-coupled mass spectrometry (LC–MS); conditions: 2 µM
[14] = The drug is tested on Bifidobacterium breve strain: DSM20213 for biotransformation. The drug concentrations were measured before and after a 12-h incubation by liquid-chromatography-coupled mass spectrometry (LC–MS); conditions: 2 µM
[15] = victivallis vadensis, 12 h, 2 µM
Description: The drug is tested on Victivallis vadensis strain: ATCC BAA-548 for biotransformation. The drug concentrations were measured before and after a 12-h incubation by liquid-chromatography-coupled mass spectrometry (LC–MS)

[16] = bacteroides fragilis, 12 h, 2 µM; remark: listed apart in the source
Description: The drug is tested on Bacteroides fragilis strain: NCTC 9343 for biotransformation. The drug concentrations were measured before and after a 12-h incubation by liquid-chromatography-coupled mass spectrometry (LC–MS)

[17] = The drug is tested on Bacteroides vulgatus strain: ATCC8482 for biotransformation. The drug concentrations were measured before and after a 12-h incubation by liquid-chromatography-coupled mass spectrometry (LC–MS); conditions: phocaeicola vulgatus, 2 µM
[18] = The drug is tested on Bacteroides fragilis strain: ATCC43859 for biotransformation. The drug concentrations were measured before and after a 12-h incubation by liquid-chromatography-coupled mass spectrometry (LC–MS); conditions: 2 µM
[19] = The drug is tested on Alistipes indistinctus strain: DSM22520 for biotransformation. The drug concentrations were measured before and after a 12-h incubation by liquid-chromatography-coupled mass spectrometry (LC–MS); conditions: 2 µM
[20] = The drug is tested on Bacteroides cellulosilyticus strain: DSM14838 for biotransformation. The drug concentrations were measured before and after a 12-h incubation by liquid-chromatography-coupled mass spectrometry (LC–MS); conditions: 2 µM

Row | Compound | Bacterial Biotransformation [1] | Bacterial Biotransformation [2] | Bacterial Biotransformation [3] | Bacterial Biotransformation [4] | Bacterial Biotransformation [5] | Bacterial Biotransformation [6] | Bacterial Biotransformation [7] | Bacterial Biotransformation [8] | Bacterial Biotransformation [9] | Bacterial Biotransformation [10] | Bacterial Biotransformation [11] | Bacterial Biotransformation [12] | Bacterial Biotransformation [13] | Bacterial Biotransformation [14] | Bacterial Biotransformation [15] | Bacterial Biotransformation [16] | Bacterial Biotransformation [17] | Bacterial Biotransformation [18] | Bacterial Biotransformation [19] | Bacterial Biotransformation [20]
1 | CN(C)C(=O)Oc1cc(OC(=O)N(C)C)cc(C(O)CNC(C)(C)C)c1 (configuration not stated) [BAMBUTEROL] | Compound NOT metabolized | Compound NOT metabolized | Compound NOT metabolized | Compound NOT metabolized | Compound NOT metabolized | Compound NOT metabolized | Compound NOT metabolized | Compound NOT metabolized | Compound NOT metabolized | Compound NOT metabolized | Compound NOT metabolized | Compound NOT metabolized | Compound NOT metabolized | Compound NOT metabolized | Compound NOT metabolized | Compound NOT metabolized | Compound NOT metabolized | Compound NOT metabolized |  | 
2 | NS(=O)(=O)c1cc2c(cc1Cl)N=C(CSCc1ccccc1)NS2(=O)=O [BENZTHIAZIDE] | Compound NOT metabolized | Compound NOT metabolized | Compound NOT metabolized | Compound NOT metabolized | Compound NOT metabolized | Compound NOT metabolized |  | Compound NOT metabolized |  | Compound NOT metabolized |  | Compound metabolized | Compound NOT metabolized | Compound NOT metabolized | Compound NOT metabolized |  |  | Compound NOT metabolized | Compound NOT metabolized | Compound NOT metabolized
3 | OC(CCN1CCCCC1)(c1ccccc1)C1CC2C=CC1C2 (configuration not stated) [BIPERIDEN] | Compound NOT metabolized | Compound NOT metabolized | Compound NOT metabolized | Compound NOT metabolized | Compound NOT metabolized | Compound NOT metabolized | Compound NOT metabolized | Compound NOT metabolized |  | Compound NOT metabolized | Compound NOT metabolized | Compound NOT metabolized | Compound NOT metabolized | Compound NOT metabolized | Compound NOT metabolized |  | Compound metabolized |  | Compound NOT metabolized | Compound NOT metabolized
4 | CC(NC(C)(C)C)C(=O)c1cccc(Cl)c1 (configuration not stated) [BUPROPION] | Compound NOT metabolized | Compound metabolized | Compound NOT metabolized | Compound NOT metabolized | Compound NOT metabolized | Compound metabolized |  | Compound NOT metabolized | Compound NOT metabolized | Compound metabolized | Compound NOT metabolized | Compound NOT metabolized | Compound metabolized | Compound NOT metabolized | Compound NOT metabolized | Compound NOT metabolized | Compound NOT metabolized |  | Compound NOT metabolized | Compound NOT metabolized
5 | CN1C(=O)CCS(=O)(=O)C1c1ccc(Cl)cc1 (configuration not stated) [CHLORMEZANONE] | Compound NOT metabolized |  | Compound NOT metabolized | Compound NOT metabolized | Compound NOT metabolized | Compound NOT metabolized |  | Compound NOT metabolized | Compound NOT metabolized | Compound NOT metabolized | Compound NOT metabolized | Compound metabolized | Compound NOT metabolized | Compound NOT metabolized | Compound NOT metabolized | Compound NOT metabolized | Compound metabolized |  | Compound metabolized | Compound NOT metabolized
6 | O=P1(N(CCCl)CCCl)NCCCO1 (configuration not stated) [CYCLOPHOSPHAMIDE ANHYDROUS] | Compound NOT metabolized | Compound NOT metabolized | Compound NOT metabolized | Compound metabolized |  | Compound NOT metabolized | Compound NOT metabolized |  | Compound NOT metabolized | Compound NOT metabolized | Compound NOT metabolized | Compound NOT metabolized | Compound NOT metabolized | Compound NOT metabolized | Compound NOT metabolized | Compound NOT metabolized | Compound NOT metabolized |  | Compound metabolized | 
7 | CC(=O)O[C@]1(C(C)=O)CC[C@H]2[C@@H]3C=C(Cl)C4=CC(=O)[C@@H]5C[C@@H]5[C@]4(C)[C@H]3CC[C@@]21C [CYPROTERONE ACETATE] | Compound metabolized | Compound NOT metabolized | Compound metabolized | Compound metabolized | Compound NOT metabolized | Compound metabolized |  | Compound NOT metabolized | Compound metabolized | Compound metabolized |  | Compound metabolized | Compound metabolized | Compound NOT metabolized | Compound NOT metabolized | Compound metabolized | Compound metabolized | Compound metabolized | Compound NOT metabolized | Compound metabolized
8 | CN1C[C@H](C(=O)N[C@]2(C)O[C@@]3(O)[C@@H]4CCCN4C(=O)[C@H](Cc4ccccc4)N3C2=O)C=C2c3cccc4[nH]cc(c34)C[C@H]21.CN1C[C@H](C(=O)N[C@]2(C)O[C@@]3(O)[C@@H]4CCCN4C(=O)[C@H](Cc4ccccc4)N3C2=O)C=C2c3cccc4[nH]cc(c34)C[C@H]21.O=C(O)C(O)C(O)C(=O)O [ERGOTAMINE TARTRATE] | Compound metabolized | Compound metabolized | Compound metabolized |  | Compound metabolized | Compound metabolized |  | Compound metabolized | Compound metabolized | Compound metabolized | Compound NOT metabolized |  | Compound metabolized | Compound metabolized | Compound metabolized | Compound metabolized | Compound metabolized |  | Compound NOT metabolized | Compound metabolized
9 | CC(=O)SCC(Cc1ccccc1)C(=O)NCC(=O)OCc1ccccc1 (configuration not stated) [RACECADOTRIL] | Compound metabolized | Compound metabolized | Compound metabolized | Compound metabolized |  |  | Compound NOT metabolized | Compound NOT metabolized | Compound metabolized | Compound metabolized | Compound NOT metabolized | Compound metabolized | Compound metabolized | Compound metabolized | Compound metabolized | Compound metabolized | Compound metabolized |  | Compound metabolized | Compound metabolized

— ChEMBL document CHEMBL5303573, “Mapping human microbiome drug metabolism by gut bacteria and their genes” (Nature, 2019)
